Laboratory results reported in the supplement of paper PMC13380429.

What was measured:
Conditions in all cases: 72 h
[1] = tested on: Caco-2; test: cell viability relative to DMSO; higher = less toxic
[2] = tested on: Calu-3; test: as above
[3] = tested on: HepG2; test: as above
[4] = tested on: U2OS; test: as above
[5] = tested on: Caco-2; test: relative viability EC50 (midpoint between 100% and the lowest measured viability); higher = less toxic
[6] = tested on: Calu-3; test: as above
[7] = tested on: HepG2; test: as above
[8] = tested on: U2OS; test: as above
[9] = tested on: Caco-2; test: drug sensitivity score (DSS) for viability; higher = more toxic; extreme values may be limits of the assay
[10] = tested on: Calu-3; test: as above
[11] = tested on: HepG2; test: as above
[12] = tested on: U2OS; test: as above
[13] = tested on: Vero E6; test: cell viability relative to DMSO; higher = less toxic
[14] = tested on: Vero E6; test: relative viability EC50 (midpoint between 100% and the lowest measured viability); higher = less toxic
[15] = tested on: Vero E6; test: drug sensitivity score (DSS) for viability; higher = more toxic; extreme values may be limits of the assay

Row | SMILES | cell viability ([1]; 1 nM) [%] | cell viability ([1]; 10 nM) [%] | cell viability ([1]; 100 nM) [%] | cell viability ([1]; 1000 nM) [%] | cell viability ([1]; 10000 nM) [%] | cell viability ([2]; 1 nM) [%] | cell viability ([2]; 10 nM) [%] | cell viability ([2]; 100 nM) [%] | cell viability ([2]; 1000 nM) [%] | cell viability ([2]; 10000 nM) [%] | cell viability ([3]; 1 nM) [%] | cell viability ([3]; 10 nM) [%] | cell viability ([3]; 100 nM) [%] | cell viability ([3]; 1000 nM) [%] | cell viability ([3]; 10000 nM) [%] | cell viability ([4]; 1 nM) [%] | cell viability ([4]; 10 nM) [%] | cell viability ([4]; 100 nM) [%] | cell viability ([4]; 1000 nM) [%] | cell viability ([4]; 10000 nM) [%] | relative viability EC50 [5] [µM] | relative viability EC50 [6] [µM] | relative viability EC50 [7] [µM] | relative viability EC50 [8] [µM] | drug sensitivity score [9] | drug sensitivity score [10] | drug sensitivity score [11] | drug sensitivity score [12] | cell viability ([13]; 1 nM) [%] | cell viability ([13]; 10 nM) [%] | cell viability ([13]; 100 nM) [%] | cell viability ([13]; 1000 nM) [%] | cell viability ([13]; 10000 nM) [%] | relative viability EC50 [14] [µM] | drug sensitivity score [15]
1 | O=C(O)c1cc(N2N=C(C(F)(F)F)/C(=C/c3ccc(-c4ccccc4)o3)C2=O)ccc1Cl [EN460] | 101 | 95.2 | 101 | 97.8 | 96.3 | 102 | 89.9 | 97.6 | 92.6 | 100 | 106 | 97.9 | 101 | 105 | 92.1 | 101 | 102 | 97.9 | 98.6 | 100 | > 10 | > 10 | > 10 | > 10 | 0 | 0 | 0 | 0 |  |  |  |  |  |  | 
2 | Cc1cc2sc(NC(=O)Cc3ccccc3)nc2cc1Cl [LH846] | 95.8 | 93.3 | 101 | 110 | 101 | 115 | 105 | 110 | 100 | 92.7 | 98.7 | 119 | 103 | 102 | 108 |  |  |  |  |  | > 10 | > 10 | > 10 |  | 0 | 0 | 0 |  | 96.5 | 99.2 | 98 | 93.5 | 107 | > 10 | 0
3 | CC(=O)c1cc([N+](=O)[O-])c(Sc2cccc(Cl)c2Cl)s1 [P5091] | 100 | 90 | 98.8 | 87.2 | 52.1 | 110 | 93.3 | 93.5 | 96.9 | 106 | 95.7 | 97.9 | 93.3 | 105 | 93.7 | 95.9 | 97.3 | 97.9 | 96.9 | 60.4 |  | > 10 | > 10 |  | 4.5 | 0 | 0 | 2.4 | 99.4 | 97.5 | 97.2 | 99.7 | 90.4 | > 10 | 0
4 | O=C(c1ccc(F)cc1)C1CCN(CCn2c(=S)[nH]c3ccccc3c2=O)CC1 [altanserin] | 103 | 82.7 | 94.2 | 89 | 90.6 | 104 | 103 | 112 | 97.3 | 111 | 108 | 107 | 88.2 | 96 | 86.4 | 98.2 | 96.7 | 103 | 96.5 | 97.1 | > 10 | > 10 | > 10 | > 10 | 0.2 | 0 | 1.7 | 0 |  |  |  |  |  |  | 
5 | c1ccc(CN(CC2=NCCN2)c2ccccc2)cc1 [antazoline] | 103 | 84.4 | 92.1 | 84 | 70.7 | 90.2 | 105 | 98.3 | 104 | 91.7 | 102 | 91.8 | 90.6 | 96.7 | 103 | 96.5 | 101 | 93.9 | 95 | 90.6 |  | > 10 | > 10 | > 10 | 3.4 | 0 | 0 | 0 | 99.1 | 102 | 105 | 90.4 | 91.7 | > 10 | 0
6 | O=C1CCc2ccc(OCCCCN3CCN(c4cccc(Cl)c4Cl)CC3)cc2N1 [aripiprazole] | 112 | 78 | 94.6 | 90.5 | 70.8 | 98.5 | 98.5 | 104 | 91.9 | 83.3 | 109 | 105 | 98.6 | 100 | 77.5 | 102 | 103 | 103 | 103 | 89.2 |  | > 10 | > 10 | > 10 | 2.3 | 1.1 | 0.8 | 0 | 94.1 | 97.6 | 93.7 | 96.3 | 88.2 | > 10 | 0
